Source: patent US7544700B2, “Pharmaceutically active sulfonamide derivatives bearing both lipophilic and ionisable moieties as inhibitors of protein JunKinases” (Laboratoires Serono SA, priority 2000, dated 2009)

Key:
[1] = test system: Hela luciferase reporter-c-Jun (HLR-c-Jun) cell lines; test: C-Jun reporter assay; format: cell-based; settings: Homo sapiens, MEKK-1 transfected HLR-c-Jun cells
Excerpt: The phosphorylation of the transcriptional factor, c-jun, by JNK in the MAP kinase signal transduction pathway can be followed via a trans-reporting system such as the commercially available PathDetect® (32).
A trans-reporting system allows one to follow, via Luciferase activity, the activation status of a fusion trans-activator protein. The trans-activator protein consists of the activation domain of the transcriptional factor of interest (c-jun) fused with a yeast transcriptional activator, GAL4 DNA binding domain (dbd). The GAL4 dbd has the advantage that no known mammalian transcriptional factors can bind to it and therefore the background noise of the assay is very low.
In the present case, Hela luciferase reporter-c-Jun (HLR-c-Jun) cell lines which constitutively express GAL4-cJun were used.
The MEKK-1 gene was inserted. MEKK-1 is a MAPKKK which triggers the activation of JNK. Expression of wild type MEKK-1 is sufficient for JNK activation (33).
Once, JNK is activated it can induce the phosphorylation of the c-jun domain of the fusion trans-activator protein (GAL4dbd-cJun) which forms a dimer. The dimer is then is able to bind to a GAL4 upstream activating sequence (GAL4 UAS) of the reporter which activates Luciferase expression.
Luciferase expression is detected by luminescence using a simple assay such as Dual-Luciferase® Reporter Assay System (34) in which Renilla is used as a “control reporter”.
Inhibition of JNK is observed as a decrease in Luciferase expression and detected by a decrease in luminescence.
HLR-c-Jun cells are cultured in DMEM High Glc supplemented with 10% FCS (Sigma), 2 mM Glutamine (Gibco), P/S, Hygromycin b 100 μg/mL and G418 250 μg/mL.
The cell suspensions are diluted with medium to give about 3.5×10^6 cells/mL and […] of cell suspension are put onto 2 10 cm culture dishes containing 9 mL of culture medium.
Transfections • Control: 0.2 μg pTK Renilla, 5.8 μg pBluescript KS, 500 μl OPTIMEM (GOBCO), 18 μl Fugene 6. • Induced: 0.1 μg pMEKK1, 0.2 μg pTK Renilla, 5.7 μg pBluescript KS, 500 μl OPTIEM (GIBCO), 18 μl Fugene 6 30′ RT.
The transfection mixture is added to the plated cells. The plates are incubated over night at 37° C. in a humidified atmosphere of 5% CO2 in air.
A 96 wells plate (100 μl of culture medium per well) is prepared. Negative control (vehicle): 2 μl of DMSO is added to the 100 μl (in triplicate). […]
The medium is removed from the plate and the cells are washed two times with 100 μl PBS. […] The luminometer reading is recorded.
−50 μl of Luciferase Assay Reagent II are injected and readings are recorded at 5 and 10 minutes.
50 μl of Stop & Glo® Reagent are injected and readings are recorded at 5 and 10 minutes.
The relative luminescence is then measured: RLU Luciferase/RLU Renilla.

[2] = test system: IL-2 release by (PMA+Ionomycin)-stimulated Jurkat cells; test: IL-2 release assay (IL-2 ELISA); format: cell-based; settings: Homo sapiens; PMA + Ionomycine stimulated Jurkat cells
Description: The Ability of the Compounds According to Formula I to Modulate the Inflammatory Response by Inhibiting the Release of IL-2 was Assessed Using the Following Protocol
JNK pathway activation triggers the production of inflammatory cytokines such as IL-2. JNK can be activated by external stimuli such as PMA and Ionomycine and IL-2 production can be measured via an IL-2 ELISA test. Comparative measurements with and without the compounds of the invention according to the following protocol measure the ability of the compounds to prevent to stress-mediated IL-2 release.
Jurkat cells, a human T cell leukemia cell line (American Type Culture Collection # TIB 152) were cultured in RPMI 1640 medium (Gibco, BRL) supplemented with 10% of […] fetal calf serum (FCS), Glutamine and Penstrep. The cell suspension in the medium is diluted to give 2.10^6 cells/mL. The cells were plated (2.10^5 cells/well) on a 96-well plate containing different concentrations of a compound according to formula I (final concentration of compounds, 10, 3, 1, 0.3, 0.1 μM). This mixture is incubated 30 minutes at 37° C. in a humidified CO2 atmosphere. Cells were then treated with 10 μl PMA (Phorbolmyristate-13 Acetate-12)+Ionomycine (0.1 μM and 1 μM final concentration) in all wells except negative control. In wells without compounds, 10 μl of RPMI 2% DMSO (=0.1% final) is added. Cells are incubated 24 hours at 37° C. and then the supernatant harvested (freeze at −20° C. if not used the same day) prior to performing IL-2 ELISA test on the supernatant.
IL-2 release into the medium by (PMA+Iononomycin)-stimulated Jurkat cells, in presence or absence of test compounds may be assayed by ELISA. Following the procedure described below.
Monoclonal anti-human IL-2 antibody (MAB602) (capture), biotinylated anti-human IL-2 antibody (BAF202) (detection) and recombinant human IL-2 (202-IL-010) (standard) from From R&D Systems are used. […]
• 1. […] Optical density is measured using a microtiter plate reader set to 450 nm with correction at 570 nm.

GST-JNK3 = GST-JNK3 (Homo sapiens, UniProt P53779); test: JNK3 in vitro assay (33P incorporation into c-jun, SPA); format: biochemical
Description: (§1) The phosphorylation of c-jun by JNK2 or JNK3 may be followed by monitoring the incorporation of ^33P into c-jun following the protocol below. The inhibitory activity of the compounds according to formula I, in respect of c-jun phosphorylation through JNK, is determined by calculating the phosphorylation activity of a JNK in the presence or absence of the test compounds according to formula I.
(§2) JNK3 and/or -2 assays are performed in 96 well NM plates: incubation of 0.5 μg of recombinant, pre-activated GST-JNK3 or GST-JNK2 with 1 μg of recombinant, biotinylated GST-c-Jun and 2 μM ^33γ-ATP (2 nCi/μl), in the presence or absence of compounds according to formula I and in a reaction volume of 50 μl containing 50 mM Tris-HCl, pH 8.0; 10 mM MgCl2; 1 mM Dithiothreitol, and 100 μM NaVO4. The incubation is performed for 120 min. at R.T and stopped upon addition of 200 μl of a solution containing 250 μg of Streptavidine-coated SPA beads (Amersham, Inc.)*, 5 mM EDTA, 0.1% Triton X-100 and 50 μM ATP, in phosphate saline buffer. After incubation for 60 minutes at RT, beads are sedimented by centrifugation at 1500×g for 5 minutes, resuspended in 200 μl of PBS containing 5 mM EDTA, 0.1% Triton X-100 and 50 μM ATP and the radioactivity measured in a scintillation β counter, following sedimentation of the beads as described above. By replacing biotinylated GST-c Jun with biotinylated GST-1ATF2 or biotinylated myelin basic protein, this assay may also be used to measure inhibition of pre-activated p38 and ERK MAP Kinases, respectively.

GST-JNK2 = GST-JNK2 (Homo sapiens, UniProt P45984); test: JNK2 in vitro assay (33P incorporation into c-jun, SPA); format: biochemical
Description: as §1, §2

JNK1 = JNK1 (Homo sapiens, UniProt P45983); test: JNK1 inhibition; format: biochemical; settings: read-out: inhibition (IC50) with regard to JNK1
Solubility in water = format: physicochemical; settings: pH 7.4, aqueous buffer, pH of 7.4 at room temperature
Description: The compounds have been assessed in respect of their solubility in water, at a pH of 7.4 at room temperature. In general the solubility of compounds of formula (I) is in a range of at least 50 μg/mL solvent, more preferably of at least 100 μg/mL solvent. For instance compounds (63), (163), (198) display a solubility in water of at least 200 μg/mL solvent.

Sequence of GST-JNK3 (P53779 whole entry): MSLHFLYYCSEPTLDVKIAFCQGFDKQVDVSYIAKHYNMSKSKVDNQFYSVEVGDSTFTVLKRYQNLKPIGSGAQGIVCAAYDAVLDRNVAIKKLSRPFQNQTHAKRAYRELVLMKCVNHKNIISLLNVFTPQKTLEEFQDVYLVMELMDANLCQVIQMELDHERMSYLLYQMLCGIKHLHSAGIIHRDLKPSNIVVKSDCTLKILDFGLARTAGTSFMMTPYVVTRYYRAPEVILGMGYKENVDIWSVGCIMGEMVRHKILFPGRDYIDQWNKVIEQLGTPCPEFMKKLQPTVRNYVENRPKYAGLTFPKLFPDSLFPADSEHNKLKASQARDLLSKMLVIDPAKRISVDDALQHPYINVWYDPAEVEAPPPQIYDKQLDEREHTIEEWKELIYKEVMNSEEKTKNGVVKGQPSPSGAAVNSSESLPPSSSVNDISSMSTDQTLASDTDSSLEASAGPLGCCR
Sequence of GST-JNK2 (P45984 whole entry): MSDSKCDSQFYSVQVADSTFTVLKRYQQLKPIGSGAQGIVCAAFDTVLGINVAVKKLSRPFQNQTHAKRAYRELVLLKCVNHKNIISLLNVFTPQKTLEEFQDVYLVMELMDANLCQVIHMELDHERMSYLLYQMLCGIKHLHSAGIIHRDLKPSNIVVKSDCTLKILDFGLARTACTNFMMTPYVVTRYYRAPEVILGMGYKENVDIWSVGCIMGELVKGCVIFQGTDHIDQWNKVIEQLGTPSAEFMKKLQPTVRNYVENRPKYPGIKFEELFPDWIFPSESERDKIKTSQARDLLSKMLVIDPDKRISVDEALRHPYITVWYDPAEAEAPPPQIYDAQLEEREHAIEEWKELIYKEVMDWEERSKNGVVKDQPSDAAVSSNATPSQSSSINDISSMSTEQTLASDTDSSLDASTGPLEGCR
Sequence of JNK1 (P45983 whole entry, species assumed): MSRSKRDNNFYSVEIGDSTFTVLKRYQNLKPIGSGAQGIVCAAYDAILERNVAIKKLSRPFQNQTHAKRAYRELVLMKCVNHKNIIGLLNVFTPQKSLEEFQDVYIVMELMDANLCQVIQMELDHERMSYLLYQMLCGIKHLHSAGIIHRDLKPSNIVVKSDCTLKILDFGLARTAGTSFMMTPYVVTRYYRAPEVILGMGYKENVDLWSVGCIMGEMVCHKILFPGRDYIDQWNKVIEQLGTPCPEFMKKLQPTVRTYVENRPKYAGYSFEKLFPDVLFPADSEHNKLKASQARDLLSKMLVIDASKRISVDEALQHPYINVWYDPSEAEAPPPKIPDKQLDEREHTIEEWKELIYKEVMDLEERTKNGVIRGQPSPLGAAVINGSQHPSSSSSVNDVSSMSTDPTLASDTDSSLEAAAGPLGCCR

Row | Structure (SMILES) | IC50 (GST-JNK3) [nM] | IC50 (GST-JNK2) [nM] | also measured
1 | COc1cccc(C(=O)NCc2ccc(S(=O)(=O)N3CCC(NCc4c(C)c(C)c(C)c(C)c4C)CC3)s2)c1 [Example 10, 3-methoxy-N-{[5-({4-[(2,3,4,5,6-pentamethylbenzyl)amino]piperidin-1-yl}sulfonyl)thien-2-yl]methyl}benzamide] |  |  | IC50 [1]: < 700 nM
2 | CCCOc1ccc(CNC2CCN(S(=O)(=O)c3ccc(CNC(=O)c4cccc(OC)c4)s3)CC2)cc1 [Example 11, 3-methoxy-N-{[5-({4-[(4-propoxybenzyl)amino]piperidin-1-yl}sulfonyl)thien-2-yl]methyl}benzamide] |  |  | IC50 [1]: < 700 nM
3 | COc1cccc(C(=O)NCc2ccc(S(=O)(=O)N3CCC(NCc4ccc(S(=O)(=O)C(F)(F)F)cc4)CC3)s2)c1 [Example 64, 3-methoxy-N-[(5-{[4-({4-[(trifluoromethyl)sulfonyl]benzyl}-amino)piperidin-1-yl]sulfonyl}thien-2-yl)methyl]benzamide] |  |  | IC50 [2]: < 800 nM
4 | O=C(NCc1ccc(S(=O)(=O)N2CCC(NCCC3CCCCC3)CC2)s1)c1ccc(Cl)cc1 [Example 70, 4-chloro-N-{[5-({4-[(2-cyclohexylethyl)amino]piperidin-1-yl}sulfonyl)thien-2-yl]methyl}benzamide] | < 600 | < 600 | 
5 | CCCCCCCCCCNC1CCN(S(=O)(=O)c2ccc(CNC(=O)c3cccc(OC)c3)s2)CC1 [Example 86, 3-methoxy-N-[(5-{[4-(decylamino)piperidin-1-yl]sulfonyl}thien-2-yl)methyl]benzamide] |  |  | IC50 (JNK1): 100 to 700 nM
6 | O=C(NCc1ccc(S(=O)(=O)N2CCC(NCc3ccc(S(=O)(=O)C(F)(F)F)cc3)CC2)s1)c1ccc(Cl)cc1 [Example 117, 4-chloro-N-[(5-{[4-({4-[(trifluoromethyl)sulfonyl]benzyl}amino)-1-piperidinyl]sulfonyl}-2-thienyl)methyl]benzamide] |  |  | IC50 [1]: < 700 nM
7 | COc1cccc(C(=O)NCc2ccc(S(=O)(=O)N3CCCC(NCCC4CCCCC4)CC3)s2)c1 (stereo not drawn) [Example 132, N-{[5-({4-[(2-cyclohexylethyl)amino]azepan-1-yl}sulfonyl)thien-2-yl]methyl}-3-methoxy-benzamide] | < 600 |  | 
8 | CCCCCCN(C)C1CCN(S(=O)(=O)c2ccc(CNC(=O)c3ccc(Cl)cc3)s2)CC1 [Example 163, 4-chloro-N-{[5-({4-[hexyl(methyl)amino]piperidin-1-yl}sulfonyl)thien-2-yl]methyl}benzamide] |  |  | solubility (Solubility in water): ≥ 200 µg/mL

Continued, in another order:

Row | IC50 (GST-JNK3) [nM] | IC50 (GST-JNK2) [nM] | Structure (SMILES) | also measured
9 | < 600 | < 600 | CCCCCCN(CC1CCCCC1)C1CCN(S(=O)(=O)c2ccc(CNC(=O)c3ccc(Cl)cc3)s2)CC1 [Example 155, 4-chloro-N-{[5-({4-[(cyclohexylmethyl)(hexyl)-amino]piperidin-1-yl}sulfonyl)thien-2-yl]methyl}-benzamide] | 
10 | < 600 | < 600 | COc1cccc(C(=O)NCc2ccc(S(=O)(=O)N3CCC(NCCCN4CCOCC4)C3)s2)c1 (stereo not drawn) [Example 176, 3-methoxy-N-{[5-({3-[(3-morpholin-4-ylpropyl)amino]pyrrolidin-1-yl}sulfonyl)thien-2-yl]methyl}benzamide] | 
11 | < 600 | < 600 | CCCCCNCC1CCN(S(=O)(=O)c2ccc(CNC(=O)c3cccc(OC)c3)s2)CC1 [Example 195, 3-methoxy-N-{[5-({4-[(pentylamino)methyl]piperidin-1-yl}sulfonyl)-thien-2-yl]methyl}benzamide] | 
